Patent US6534516B1, “Androgen receptor modulator compounds and methods” (Ligand Pharmaceuticals Incorporated, priority 1996, dated 2003)
pIC50: −log10 of the molar value.

Key:
[1] = target: T1, MR (Homo sapiens, UniProt P08235); experiment: Co-transfection assay, cross-reactivity on MR; type: cell-based
T1 construct: expressed in transfected cells
T1 sequence (P08235 1-984): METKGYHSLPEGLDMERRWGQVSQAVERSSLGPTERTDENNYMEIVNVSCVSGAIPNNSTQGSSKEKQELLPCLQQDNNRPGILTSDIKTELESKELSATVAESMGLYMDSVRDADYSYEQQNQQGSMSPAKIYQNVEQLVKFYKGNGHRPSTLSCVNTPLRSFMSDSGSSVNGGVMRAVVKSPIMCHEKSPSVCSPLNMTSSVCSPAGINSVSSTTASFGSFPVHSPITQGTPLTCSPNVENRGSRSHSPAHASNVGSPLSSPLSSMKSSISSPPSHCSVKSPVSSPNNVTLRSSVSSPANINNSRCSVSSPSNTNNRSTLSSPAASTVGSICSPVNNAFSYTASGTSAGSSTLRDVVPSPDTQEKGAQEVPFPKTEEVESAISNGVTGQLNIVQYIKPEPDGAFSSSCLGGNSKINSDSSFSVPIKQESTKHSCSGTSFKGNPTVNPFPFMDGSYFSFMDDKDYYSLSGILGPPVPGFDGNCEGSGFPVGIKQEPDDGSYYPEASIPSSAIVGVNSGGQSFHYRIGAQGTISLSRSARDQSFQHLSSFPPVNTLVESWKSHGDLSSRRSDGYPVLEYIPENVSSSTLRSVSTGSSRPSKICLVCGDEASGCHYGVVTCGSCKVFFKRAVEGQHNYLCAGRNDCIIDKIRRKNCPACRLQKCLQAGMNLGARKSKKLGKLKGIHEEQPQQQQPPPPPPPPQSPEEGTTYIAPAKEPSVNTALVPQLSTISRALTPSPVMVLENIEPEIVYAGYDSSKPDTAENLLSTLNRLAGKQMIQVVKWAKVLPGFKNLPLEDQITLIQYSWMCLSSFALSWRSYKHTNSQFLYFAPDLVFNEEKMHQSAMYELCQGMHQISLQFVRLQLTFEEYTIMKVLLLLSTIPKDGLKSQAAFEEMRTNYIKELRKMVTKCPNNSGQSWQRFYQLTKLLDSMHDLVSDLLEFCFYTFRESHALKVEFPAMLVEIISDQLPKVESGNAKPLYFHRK

[2] = target: T2, PR (Homo sapiens, UniProt P06401); experiment: cell-based
T2 sequence (P06401 1-933): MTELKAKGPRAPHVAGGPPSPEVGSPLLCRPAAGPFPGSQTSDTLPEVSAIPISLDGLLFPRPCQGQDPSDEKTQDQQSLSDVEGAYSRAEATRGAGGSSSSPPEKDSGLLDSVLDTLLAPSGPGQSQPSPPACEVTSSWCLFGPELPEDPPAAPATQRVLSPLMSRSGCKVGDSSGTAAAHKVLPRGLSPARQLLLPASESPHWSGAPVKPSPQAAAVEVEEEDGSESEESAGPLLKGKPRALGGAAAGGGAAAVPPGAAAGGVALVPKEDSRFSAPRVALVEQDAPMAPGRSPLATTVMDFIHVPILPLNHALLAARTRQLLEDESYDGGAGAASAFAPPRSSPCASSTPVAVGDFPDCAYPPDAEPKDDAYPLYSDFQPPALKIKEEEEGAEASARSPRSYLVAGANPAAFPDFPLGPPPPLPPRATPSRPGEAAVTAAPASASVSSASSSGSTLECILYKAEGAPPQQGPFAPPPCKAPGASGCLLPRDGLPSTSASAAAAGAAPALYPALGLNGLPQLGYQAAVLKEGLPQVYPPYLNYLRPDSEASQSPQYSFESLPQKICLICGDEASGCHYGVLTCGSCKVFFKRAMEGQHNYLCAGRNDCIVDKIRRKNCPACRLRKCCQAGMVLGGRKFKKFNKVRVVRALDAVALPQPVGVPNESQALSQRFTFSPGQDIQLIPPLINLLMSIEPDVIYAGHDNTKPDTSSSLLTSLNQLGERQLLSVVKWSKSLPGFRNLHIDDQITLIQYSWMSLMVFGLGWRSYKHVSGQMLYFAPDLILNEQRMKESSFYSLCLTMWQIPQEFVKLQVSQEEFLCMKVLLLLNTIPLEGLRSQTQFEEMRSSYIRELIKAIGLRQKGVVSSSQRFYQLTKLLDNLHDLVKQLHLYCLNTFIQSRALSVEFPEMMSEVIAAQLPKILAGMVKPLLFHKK

Cn1c(=O)cc(C(F)(F)F)c2cc3c(cc21)N1CCCC1(C)CC3 (racemic) [Compound 103, (R/S)-6,7,7a,11-Tetrahydro-1,7a-dimethyl-4-trifluoromethyl-2-pyridono[5,6-g]pyrrolidino[1,2-a]quinoline]
pIC50 [1]: 5.80 | pIC50 [2]: 5.23
